Assay results from patent US9173823B2, “Preparation for sun protection” (INSTITUT BIOPHYTIS SAS, priority 2009, dated 2015).

Columns and labels:
[1] = single dose of 120 mg or daily dose of 90 mg over 23 days; cited from earlier work
[2] = cell-free, xanthine/xanthine oxidase system; cited from earlier work
[3] = bixin in an extract standardized at 92% bixin; norbixin for an extract standardized at 91% of norbixin; cited from earlier work
[4] = orally administered prior to chemotherapy; cited from earlier work
human skin explants = test: Sunburn cell (SBC) count in UV-irradiated human skin explants; type: cell-based; settings: for reduction of the number of SBC in the epidermis compared to the untreated and irradiated skin: 7 days of treatment, UV irradiation; for reduction of the number of SBC in the epidermis compared to the untreated and irradiated skin / Number of SBC per cm, Irradiated, Average: P1 330 ng·mL-1, P2 and P3 15.5 ng·mL-1; for Number of SBC per cm, Irradiated, Average: UVB 0.30 J/cm^2 and UVA 9 J/cm^2 on day 7, collection 24 hours after irradiation; for Number of SBC per cm, Unirradiated, Mean: unirradiated explants, day 8, P1 330 ng·mL-1, P2 and P3 15.5 ng·mL-1 in medium from day 0
Protocol: 3. Experimental Study of the Effect of a Bixin-Enriched Urucum Extract, of Bixin and of Norbixin (FIG. 1). Following treatment and UV-B irradiation of human skin explants, a Masson trichrome staining allows the visualization and counting of SBC. 3.1 Tested Products: • P1: urucum organic extract titrated at 6% bixin (330 ng·mL-1) • P2: pure bixin (15.5 ng·mL-1) • P3: pure norbixin (15.5 ng·mL-1) 27 explants (3 per condition) with a diameter of 10 mm were prepared from an abdominoplasty. The explants were cultured at 37° C. in a humid atmosphere containing 5% CO2. These explants were divided into nine (9) batches as follows: Urucum extract was dissolved in DMSO. The three products were added to the medium on the first day (D0), in order to achieve the desired final concentrations. The final amount of DMSO in the medium still remained below 1%. The explants of the control batch received no treatment. On day 7, the explants were exposed to UVB at a dose of 0.30 J/cm^2 and UVA at a dose of 9 J/cm^2. Non-irradiated batches were placed in the dark during the whole irradiation time. Immediately after irradiation, the explants were put back into culture medium. At day 8, i.e. 24 hours after irradiation, the three explants from each batch were taken and processed in the same way. After 48 hours of fixation in Bouin's fixative, samples were dried and impregnated in paraffin using a Leica 1020 automated dehydration controller. Microscopic observations were made by optical microscopy using a Leica DMLB model, with the ×40 lens. Observation of the morphology was performed on paraffin sections after staining with Goldner's variant of Masson's trichrome. Sunburn cells (SBC) were counted throughout each epidermis. The length of each epidermis was measured using the measurement module of the Leica IM1000 and the number of SBC per cm of skin was then calculated.

chromosomal damage = settings: mice, oral, 200 mg per kilogram of body weight before γ-irradiation (1.5-3.0 Gy); cited from earlier work
[5] = after ingestion of an oily annatto solution containing 16 mg bixin, cited from earlier work; for time for which the plasma concentration was observed: norbixin above 25 ng·mL^−1, bixin at 10 ng·mL^−1
E. coli = settings: UV-radiation in the presence of H2O2 or superoxide anion; cited from earlier work
plasmid DNA = settings: norbixin 10 μM, 10 μM H2O2, Sn^2+ or Fe^2+ ions; cited from earlier work
SOS system = settings: in the presence of norbixin; cited from earlier work
Salmonella typhimurium = settings: cited from earlier work

Structure (SMILES) | superoxide scavenging ability, decreasing order [2] | daily acceptable dose (JECFA) [3] [mg/kg] | reduction of the number of SBC in the epidermis compared to the untreated and irradiated skin (human skin explants) [%] | Number of SBC per cm, Irradiated, Average (human skin explants) [per cm] | Number of SBC per cm, Unirradiated, Mean (human skin explants) [per cm] | plasma concentration [5] | time for which the plasma concentration was observed [5] | other results
CC1=C(/C=C/C(C)=C/C=C/C(C)=C/C=C/C=C(C)/C=C/C=C(C)/C=C/C2=C(C)CCCC2(C)C)C(C)(C)CCC1 [β-carotene] | canthaxanthin>bixin>lutein>β-carotene | – | – | – | – | – | – | protective effect against sun [1]: ineffective
CC1=C(/C=C/C(C)=C/C=C/C(C)=C/C=C/C=C(C)/C=C/C=C(C)/C=C/C2=C(C)C(=O)CCC2(C)C)C(C)(C)CCC1=O [canthaxanthin] | canthaxanthin>bixin>lutein>β-carotene | – | – | – | – | – | – | –
COC(=O)/C=C/C(C)=C\C=C\C(C)=C\C=C\C=C(C)\C=C\C=C(C)\C=C\C(=O)O [P2, bixin] | canthaxanthin>bixin>lutein>β-carotene | 12 | 74.4 | 41.9 | 0.3 | 10 ng/mL | less than 4 hours | effect on side-effects of chemotherapy [4]: reduce the side-effects of chemotherapy; chromosomal damage, micronucleus test (chromosomal damage): reduced the occurrence of chromosomal damage
CC1=C[C@H](O)CC(C)(C)[C@H]1/C=C/C(C)=C/C=C/C(C)=C/C=C/C=C(C)/C=C/C=C(C)/C=C/C1=C(C)C[C@@H](O)CC1(C)C [lutein] | canthaxanthin>bixin>lutein>β-carotene | – | – | – | – | – | – | –
CC(/C=C/C=C(C)/C=C/C(=O)O)=C\C=C\C=C(C)\C=C\C=C(C)\C=C\C(=O)O (stereo in doubt) [P3, norbixin] | – | 0.6 | 84.4 | 25.5 | 0.3 | higher than 25 ng·mL^−1 | more than 6 hours | increase of survival of bacteria (factor) (E. coli): 10; protection of plasmid DNA against breaks (plasmid DNA): protect plasmid DNA; reduction of the UV-C induced SOS system (SOS system): 2.3 times; reduction of the mutagenic effect of H2O2 (Salmonella typhimurium): 87%
